Key:
TFEB = test: High content screen measuring TFEB nuclear accumulation (TFEB nuclear/cytosol ratio) in BEAS-2B cells stably expressing TFEB-EGFP; type: cell-based, human; details: 18 hours incubation
Method in brief: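 BEAS-2B cells stably expressing TFEB-EGFP (~2300–2500 per well) pre-incubated 8 hours, then exposed to serially diluted compounds (DMEM low glucose, 2% FBS) for 18 hours, PFA-fixed and DAPI-stained. Imaged nuclear (DAPI mask) vs cytosolic (expanded mask) TFEB-GFP; activity = minimal concentration raising nuclear/cytosol ratio by 25%.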

BEAS-2B cells = test: Toxicity: compound concentration needed to induce greater than 50 percent of cell loss; type: cell-based, human; details: 18 hours incubation
Method in brief: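 BEAS-2B cells stably expressing TFEB-EGFP treated with serial compound dilutions for 18 h, then PFA-fixed, DAPI-stained and imaged. Toxicity scored as the concentration causing >50% cell loss, binned as ≥25 μM, <25 and >1 μM, or ≤1 μM ("+++").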

Structure (SMILES) | efficacy (minimal compound concentration needed to increase TFEB nuclear/cytosol ratio by 25%) (TFEB) | toxicity (compound concentration needed to induce greater than 50 percent of cell loss) (BEAS-2B cells)
[O-][n+]1ccc(-c2nc(Nc3ccc4[nH]ccc4c3)c3ccccc3n2)cc1 [Compound 66] | + (“+” equals >25 μM) | + (cell loss of greater than 50 percent at a concentration that equals or is greater than 25 μM was represented as)
c1ccc2c(Nc3ccc4cnsc4c3)nc(-c3cncs3)nc2c1 [Compound 390] | + (“+” equals >25 μM) | + (cell loss of greater than 50 percent at a concentration that equals or is greater than 25 μM was represented as)
c1ccc2c(Nc3ccc4cc[nH]c4c3)nc(-c3ccncc3)nc2c1 [Compound 25] | +++ (“+++” equals ≤1 μM) | ++ (cell loss of greater than 50 percent at a concentration less than 25 μM and greater than 1 μM was represented as)
O=C(Cn1c(=O)n(-c2ccccc2)c(=O)c2ccccc21)Nc1cccc(Cl)c1 [Compound 227] | + (“+” equals >25 μM) | + (cell loss of greater than 50 percent at a concentration that equals or is greater than 25 μM was represented as)
CCC(C)NC(=O)Cn1c(=O)n(-c2ccc(OC)cc2)c(=O)c2ccc(C(=O)NCc3ccc(C)cc3)cc21 (stereo not drawn) [Compound 216] | + (“+” equals >25 μM) | + (cell loss of greater than 50 percent at a concentration that equals or is greater than 25 μM was represented as)
O=C(Cc1ccc(-n2c(=O)c3ccccc3n(Cc3ccccc3F)c2=O)cc1)NC1CC1 [Compound 232] | + (“+” equals >25 μM) | + (cell loss of greater than 50 percent at a concentration that equals or is greater than 25 μM was represented as)
c1cnc2nc(-c3ccncc3)nc(Nc3ccc4cnsc4c3)c2c1 [Compound 136] | +++ (“+++” equals ≤1 μM) | + (cell loss of greater than 50 percent at a concentration that equals or is greater than 25 μM was represented as)
OCCNc1nc(-c2ccncc2)nc2ccccc12 [Compound 168] | + (“+” equals >25 μM) | + (cell loss of greater than 50 percent at a concentration that equals or is greater than 25 μM was represented as)
Cc1nc2cc(C)c(Nc3nc(-c4ccncc4)nc4ccccc34)cc2s1 [Compound 86] | +++ (“+++” equals ≤1 μM) | +++ (cell loss of greater than 50 percent at a concentration that equals or is less than 1 μM was represented as “+++.”)
c1ccc2c(Nc3cccc4[nH]ncc34)nc(-c3ccncc3)nc2c1 [Compound 99] | +++ (“+++” equals ≤1 μM) | + (cell loss of greater than 50 percent at a concentration that equals or is greater than 25 μM was represented as)
c1ccc2c(Nc3ccc4ncsc4c3)nc(-c3cncs3)nc2c1 [Compound 107] | + (“+” equals >25 μM) | + (cell loss of greater than 50 percent at a concentration that equals or is greater than 25 μM was represented as)
Fc1cc(F)cc(Nc2nc(-c3ccncc3)nc3ccccc23)c1 [Compound 182] | + (“+” equals >25 μM) | + (cell loss of greater than 50 percent at a concentration that equals or is greater than 25 μM was represented as)
c1cncc(-c2cc3ncccc3c(Nc3ccc4nc(C5CC5)sc4c3)n2)c1 [Compound 247] | ++ (“++” equals between ≤25 μM and >1 μM) | + (cell loss of greater than 50 percent at a concentration that equals or is greater than 25 μM was represented as)
O=c1c2ccccc2n(CCN2CCOCC2)c(=O)n1-c1ccccc1 [Compound 229] | + (“+” equals >25 μM) | + (cell loss of greater than 50 percent at a concentration that equals or is greater than 25 μM was represented as)
CCCCc1nc2ccc(Nc3nc(-c4ccncc4)nc4ccccc34)cc2o1 [Compound 359] | + (“+” equals >25 μM) | + (cell loss of greater than 50 percent at a concentration that equals or is greater than 25 μM was represented as)
N#CCNc1nc(-c2ccncc2)nc2ccccc12 [Compound 169] | + (“+” equals >25 μM) | + (cell loss of greater than 50 percent at a concentration that equals or is greater than 25 μM was represented as)
Fc1cccc2c(Nc3ccc4ncsc4c3)nc(-c3ccncc3)nc12 [Compound 372] | +++ (“+++” equals ≤1 μM) | + (cell loss of greater than 50 percent at a concentration that equals or is greater than 25 μM was represented as)
Cc1cccc2c(Nc3ccc4[nH]ccc4c3)nc(-c3ccncc3)nc12 [Compound 117] | +++ (“+++” equals ≤1 μM) | + (cell loss of greater than 50 percent at a concentration that equals or is greater than 25 μM was represented as)
c1cnc2ccc(Nc3nc(-c4ccncc4)nc4ncccc34)cc2c1 [Compound 138] | +++ (“+++” equals ≤1 μM) | + (cell loss of greater than 50 percent at a concentration that equals or is greater than 25 μM was represented as)
CN(c1cccc(F)c1)c1nc(-c2ccncc2)nc2ccccc12 [Compound 4] | +++ (“+++” equals ≤1 μM) | +++ (cell loss of greater than 50 percent at a concentration that equals or is less than 1 μM was represented as “+++.”)
Cc1cccc2c(Nc3ccc4cnsc4c3)nc(-c3ccncc3)nc12 [Compound 380] | ++ (“++” equals between ≤25 μM and >1 μM) | + (cell loss of greater than 50 percent at a concentration that equals or is greater than 25 μM was represented as)
c1cnc2cc(-c3ccncc3)nc(Nc3ccc4nc(C5CCC5)sc4c3)c2c1 [Compound 402] | +++ (“+++” equals ≤1 μM) | + (cell loss of greater than 50 percent at a concentration that equals or is greater than 25 μM was represented as)
Oc1ccc(-c2nc(Nc3ccc4[nH]ccc4c3)c3ccccc3n2)cc1 [Compound 63] | + (“+” equals >25 μM) | + (cell loss of greater than 50 percent at a concentration that equals or is greater than 25 μM was represented as)
COc1ccc2nc(-c3ccncc3)nc(Nc3ccc4nc(C(C)C)sc4c3)c2c1 [Compound 352] | ++ (“++” equals between ≤25 μM and >1 μM) | + (cell loss of greater than 50 percent at a concentration that equals or is greater than 25 μM was represented as)
Nc1ccc(Nc2nc(-c3ccncc3)nc3ccccc23)cc1 [Compound 56] | ++ (“++” equals between ≤25 μM and >1 μM) | + (cell loss of greater than 50 percent at a concentration that equals or is greater than 25 μM was represented as)
c1cc(-c2nc(Nc3ccc4cnsc4c3)c3cnccc3n2)ccn1 [Compound 139] | + (“+” equals >25 μM) | + (cell loss of greater than 50 percent at a concentration that equals or is greater than 25 μM was represented as)
c1cnc2ccc(Nc3nc(-c4cncs4)nc4ccccc34)cc2c1 [Compound 106] | + (“+” equals >25 μM) | + (cell loss of greater than 50 percent at a concentration that equals or is greater than 25 μM was represented as)
CCc1nc2ccc(Nc3nc(-c4ccncc4)nc4ccccc34)cc2s1 [Compound 90] | +++ (“+++” equals ≤1 μM) | + (cell loss of greater than 50 percent at a concentration that equals or is greater than 25 μM was represented as)
CCCCc1nc2ccc(Nc3nc(-c4ccncc4)nc4ncccc34)cc2o1 [Compound 365] | +++ (“+++” equals ≤1 μM) | + (cell loss of greater than 50 percent at a concentration that equals or is greater than 25 μM was represented as)
FC(F)(F)c1cccc(Nc2nc(-c3ccncc3)nc3ccccc23)c1 [Compound 189] | ++ (“++” equals between ≤25 μM and >1 μM) | + (cell loss of greater than 50 percent at a concentration that equals or is greater than 25 μM was represented as)

From patent US12286442B2, “Methods and materials for increasing transcription factor eb polypeptide levels” (University of Pittsburgh—Of the Commonwealth System of …, priority 2019, dated 2025)
